Experimental data reported in patent publication US10512648B2, “Tyrosine kinase inhibitors for use in a method of treating cancer in association with a reduced caloric intake” (UNIVERSITÀ DEGLI STUDI DI GENOVA, priority 2014, dated 2019).

Columns and labels:
[1] = tested on: A549 cells; assay: viability of A549 cells, sulforodhamine B-based assay, with or without STS; format: cell-based
Experimental: With reference to FIG. 1D, 3×10^3 A549 cells were plated in 96 well plates and treated with Crizotinib in the presence or absence of STS, as in the experiments of FIGS. 1A and 1B, before viability was measured in sulforodhamine B-based assays.

[2] = tested on: H3122 cells engineered to overexpress HRAS or HRAS V12; assay: sensitivity of H3122 cells engineered to overexpress HRAS or HRAS V12; format: cell-based; conditions: data not shown
[3] = tested on: H3122 cells; assay: H3122 cells in Petri dishes, sulforodhamine B staining after treatment and recovery; format: cell-based; conditions: H3122, STS conditions, 400 nM, 5 days then 2 days regular medium (FIG. 1C)
Experimental: With reference to FIG. 1C, 10^5 H3122 cells were plated in 60 mm Petri dishes in regular DMEM medium. 24 h later, the cell medium was removed and cells were incubated for 24 h either in regular medium (CTR) or in STS conditions. 24 h later 400 nM Crizotinib was added (or not) to the cells. 5 days later, the cell medium was removed and the cells were cultured for two additional days in regular DMEM medium. 48 h later, the plates were stained with sulforodhamine B and photographed.

[4] = tested on: H3122 cells; assay: viability of H3122 cells, sulforodhamine B-based assay, regular medium (CTR) vs STS conditions; format: cell-based; conditions: H3122 NSCLC cells (EML4-ALK translocation); low glucose 0.5 g/L, 1% FBS (STS) vs regular medium; 72 h
Experimental: With reference to FIGS. 1A and 1B, 3×10^3 H3122 cells were plated in 96 well plates in regular DMEM medium containing 10% FBS. 24 h later, the cell medium was removed and cells were incubated for 24 h either in the same medium (CTR) or in low-glucose (0.5 g/L) DMEM medium containing 1% FBS (STS). 24 h later cells were treated or not with the indicated concentrations of Crizotinib or […] (TAE). 72 h later, viability was measured with sulforodhamine B-based assays.

[5] = tested on: H3122 xenografts; assay: H3122 xenograft growth in mice; format: in vivo, BALB/c athymic mice (nu+/nu+)
Experimental: With reference to FIG. 2A, six- to eight-week-old BALB/c athymic mice (nu+/nu+) were injected s.c. with 5×10^6 H3122 cells. When tumors became palpable, mouse were randomly assigned to one of four arms (six mice per treatment arm): control—normal diet (—); Crizotinib—normal diet with 3 cycles of Crizotinib (25 mg/kg/day via oral gavage for 5 days a week, Mon-Fri); STS [fasting (water only) for 48 h (Sun-Tue) for three cycles at 1-week intervals]; STS+Crizotinib. Tumor size was measured daily and tumor volume was calculated using the formula: tumor volume=(w^2×W)×π/6, where “w” and “W” are “minor side” and “major side” (in mm), respectively. At the end of treatment, mice were euthanized and tumor masses were excised and weighted (see FIG. 2B). Mouse weight was also monitored daily.

[6] = tested on: phospho-ERK (Thr202/Tyr204); assay: immunoblotting of phospho-ERK and total ERK in H3122 cell lysates; format: cell-based; conditions: H3122, 400 nM, 24 h; starved cells compared with cells in standard conditions
Experimental: With reference to FIG. 1E, 10^5 H3122 cells were plated in 6 well plates in regular DMEM medium containing 10% FBS. 24 h later, the cell medium was removed and cells were incubated for 24 h either in the same medium (CTR) or in low-glucose (0.5 g/L) DMEM containing 1% FBS (STS). 24 h later cells were treated or not with 400 nM Crizotinib. After 24 h, cell were used for cell lysate preparation and phospho-ERK (Thr202/Tyr204), and total ERK levels were detected by immunoblotting.

[7] = tested on: MCF7 cells; assay: viability of MCF7 cells, with or without STS conditions; format: cell-based
[8] = tested on: BT474 cells; assay: viability of BT474 cells, sulforodhamine B-based assay, CTR vs STS; format: cell-based; conditions: BT474 HER2+ BC cells, 100 nM, 72 h
[9] = tested on: AKT and ERK1/2 signaling; assay: immunoblotting of phospho-AKT, total AKT, phospho-ERK and total ERK in BT474 cell lysates; format: cell-based; conditions: BT474, 100 nM, 24 h; STS-mimicking conditions compared with Lapatinib alone (FIG. 4B)
Experimental: (§1) With reference to FIGS. 4A-C, 10^5 SKBR3 (FIG. 4A) or BT474 (FIG. 4B) cells were plated in 6 well plates in regular DMEM medium containing 10% FBS. 24 h later, the cell medium was removed and cells were incubated for 24 h either in the same medium (CTR) or in low-glucose (0.5 g/L) DMEM medium containing 1% FBS (STS). 24 h later cells were treated or not with 100 nM Lapatinib. After 24 h, cell were either used for cell lysate preparation or for flow cytometry assays. Cell lysates were used for phospho-AKT (Ser473), total AKT, phospho-ERK (Thr202/Tyr204), and total ERK level detection by immunoblotting (FIGS. 4A and 4B). Flow cytometry (with a FACS Calibur, BD) was used to estimate cell size (FSC) by acquiring 10,000 events per cell sample (FIG. 4C).

[10] = tested on: SKBR3 cells; assay: viability of SKBR3 cells, sulforodhamine B-based assay, CTR vs STS; format: cell-based; conditions: SKBR3 HER2+ BC cells, 100 nM, 72 h
Experimental: With reference to FIGS. 3A and 3B, 3×10^3 SKBR3 (FIG. 3A) or BT474 (FIG. 3B) cells/well were plated in 96 well plates in regular DMEM medium containing 10% FBS and 2.5 g/L glucose. 24 h later, the cell medium was removed and cells were incubated for 24 h either in the same medium (CTR) or in low-glucose (0.5 g/L) DMEM medium containing 1% FBS (STS). 24 h later cells were treated or not with 100 nM Lapatinib. 72 h later, viability was measured in sulforodhamine B-based assays.
With reference to FIGS. 3D and 3E, BT474 or MCF7 cells were plated as detailed with regard to FIGS. 3A and 3B, treated with 100 nM CP724714 (FIG. 3D) or Lapatinib (FIG. 3E) with or without STS conditions as detailed with respect to FIGS. 3A and 3B before viability was detected.

[11] = tested on: AKT and ERK1/2 signaling; assay: immunoblotting of phospho-AKT, total AKT, phospho-ERK and total ERK in SKBR3 cell lysates; format: cell-based; conditions: SKBR3, 100 nM, 24 h; STS-mimicking conditions compared with Lapatinib alone (FIG. 4A)
Experimental: as §1

Row | SMILES | sensitivity of A549 cells (viability) ([1]; A549 NSCLC cells without EML4-ALK translocation) | effect of STS on activity in A549 cells ([1]; A549 cells, STS vs regular medium) | sensitivity of HRAS or HRAS V12 overexpressing H3122 cells [2] | killing of NSCLC cells [3] | effect of STS conditions on activity (viability of H3122 cells) [4] | activity on H3122 xenografts of the combination with fasting ([5]; 25 mg/kg/day oral gavage plus 48 h fasting cycles, compared with each treatment alone, p<0.05) | growth of H3122 xenografts ([5]; normal diet, 25 mg/kg/day oral gavage, 5 days a week, 3 cycles) | blocking of MAPK pathway signaling (ERK1/2 phosphorylation) [6] | sensitivity of MCF7 cells (viability) ([7]; MCF7 cells without HER2 amplification, 100 nM) | effect of STS on activity in MCF7 cells ([7]; MCF7 cells, STS vs CTR) | sensitization by STS conditions (viability of BT474 cells) [8] | inhibition of AKT and ERK1/2 signaling [9] | sensitization by STS conditions (viability of SKBR3 cells) [10] | inhibition of AKT and ERK1/2 signaling [11]
1 | C[C@@H](Oc1cc(-c2cnn(C3CCNCC3)c2)cnc1N)c1c(Cl)ccc(F)c1Cl [Crizotinib] | insensitive | did not increase the activity | resistant | virtual complete killing | strongly potentiated | more active than either type of treatment alone | effectively reduced the growth | more effective at blocking signaling through the MAPK pathway | – | – | – | – | – | –
2 | CS(=O)(=O)CCNCc1ccc(-c2ccc3ncnc(Nc4ccc(OCc5cccc(F)c5)c(Cl)c4)c3c2)o1 [Lapatinib] | – | – | – | – | – | – | – | – | insensitive | failed to enhance the activity | strongly sensitized | more pronounced inhibition | strongly sensitized | more pronounced inhibition
3 | COc1cc(N2CCC(N3CCN(C)CC3)CC2)ccc1Nc1ncc(Cl)c(Nc2ccccc2S(=O)(=O)C(C)C)n1 [TAE684] | – | – | – | – | strongly potentiated | – | – | – | – | – | – | – | – | –
